Data taken from patent US7659273B2, “Composition for accelerating bone fracture healing” (Mitsubishi Tanabe Pharma Corporation, priority 2001, dated 2010).

Tests used:
[1] = system: backbone, femur and cortical bone of mouse; details: daily subcutaneous injection; cited from earlier work
[2] = system: cultured rabbit costicartilage cells; test: Calcification of chondrocyte (Experimental Example 5); assay type: cell-based; details: 10^−4 M; 4 week cultivation; silver nitrate and Alizarin Red staining; FIG. 1
From the text: Costicartilages were isolated from NZ line rabbit (Kitayama Labes., Co Ltd.; male; 4-week-old) and soaked into Hank's balanced salt solution (calcium- and magnesium-free; LifeTech Co., Ltd.; hereinafter, referred to as “HBSS”). One costicartilage and one costa were excised together, the adipose tissue and the muscle tissue were removed and then, the proliferating chondrocyte layer of costicartilage was excised. The collected proliferating chondrocyte layer was cut into sections with a surgical knife (FEATHER Safety Razor Co., Ltd.) and the all proliferating chondrocyte layer sections from 4 rabbits were combined in a centrifuge tube. To the centrifuge tube was added 40 ml of HBSS (pH 7.2) supplied with 0.1% tetrasodium ethylenediamine tetraacetate to obtain suspension of the proliferating chondrocyte layer sections, which was shaken at 37° C. for 20 minutes and centrifuged (1500 rpm, 10 minutes). The supernatant was aspirated off, and 40 ml of HBSS (pH 7.2) supplied with 0.2% trypsin was added to the tube to suspend the precipitates and shaken at 37° C. for 1 hour. The tube was centrifuged (1500 rpm, 10 minutes), and the supernatant was aspirated off. […] The precipitates were suspended in the same medium to give an about 5 ml suspension, and the cell number was counted. […]

fibula fracture region = test: Acceleration of fracture healing in normal rat, Compound (1) microspheres (Experimental Example 1); assay type: in vivo; details: normal rats, Example 2-(1) microspheres, 6 weeks after suturing; for Fibula Bone Mineral Density: at cutting site; for Fibula Bone Mineral Density / Fibula Bone Mineral Content: DXA at fracture region; for Breaking Energy / Breaking force: three-point bending test
Experimental: CD (SD) IGS rats (Charles River Japan, Inc.; male; 7-week-old) were housed for seven days at room temperature (23±2° C.) and 40-70% humidity. During the housing period, the rats were free to access commercially available food (from Oriental Bio; CE-2).
Under ether anesthesia, the left-lower legs of rats were shaved and sterilized with 70% aqueous ethanol, fibulas were exposed with scissors and cut with nail scissors (Natsume Seisakusyo; B17). The cut sections of the fibula were re-matched with tweezers. For the test groups (20 rats/group), the drug-containing microspheres prepared in Example 2-(1), which contains 0.1 or 0.5 mg of Compound (1), were placed around the cutting site of each rat using spatula followed by suturing with silk thread. For the control group (20 rats/group), the same amount of drug-free microspheres prepared in Control Example 1-(1) were placed around the cutting site using spatula followed by suturing with silk thread. Following the suturing, animals of every group were sterilized with 70% aqueous ethanol. At six weeks after the suturing, under ether anesthesia, 10 rats from each group were sacrificed by laparotomy with bleeding and the fibulas were excised.
The fibula excised at 6 weeks after suturing was subjected to DXA bone densitometer (Aloka; DCS-600) to determine bone mineral density and bone mineral content at fracture region (scanning width: 1 mm).
The volume of fibula excised 6 weeks after suturing was determined using Plethysmometer (Muromachi Kikai Co., Ltd.; TK-101).
The fibula excised at 6 weeks after suturing was subjected to a three-point bending test with bone strength tester (from Muromachi Kikai Co., Ltd.; TK-252C) to determine bone strength. Briefly, the fibula was supported by two supports apart from each other by 8 mm and the cut section was positioned at the middle of these supports, i.e., 4 mm apart from the respective two supports. Loading (3 mm/minute) from upper direction was kept on the middle point (fracture section) of fibula until fibula begins to fracture. The maximum pressure necessary to break the bone was defined as the breaking force and the total energy spent to break the bone was defined as the breaking energy.

[3] = system: rabbit costicartilage cells; test: Cartilage matrix (proteoglycan) production, Alcian blue staining (Experimental Examples 3 and 4); assay type: cell-based; details: summary of Tables 10 and 11
From the text: Costicartilages were isolated from NZ line rabbit (Kitayama Labes., Co Ltd.; male; 4-week-old) and soaked into Hank's balanced salt solution (calcium- and magnesium-free; LifeTech Co., Ltd.; hereinafter, referred to as “HBSS”). One costicartilage and one costa were excised together, the adipose tissue and the muscle tissue were removed and then, the proliferating chondrocyte layer of costicartilage was excised. The collected proliferating chondrocyte layer was cut into sections with a surgical knife (FEATHER Safety Razor Co., Ltd.) and the all proliferating chondrocyte layer sections from 4 rabbits were combined in a centrifuge tube. To the centrifuge tube was added 40 ml of HBSS (pH 7.2) supplied with 0.1% tetrasodium ethylenediamine tetraacetate to obtain suspension of the proliferating chondrocyte layer sections, which was shaken at 37° C. for 20 minutes and centrifuged (1500 rpm, 10 minutes). The supernatant was aspirated off, and 40 ml of HBSS (pH 7.2) supplied with 0.2% trypsin was added to the tube to suspend the precipitates and shaken at 37° C. for 1 hour. The tube was centrifuged (1500 rpm, 10 minutes), and the supernatant was aspirated off. The precipitates were washed twice with HBSS, suspended in 100 ml of HBSS supplied with 0.1% collagenase (Wako Pure Chemical Industries, Ltd., 034-10533) and shaken at 37° C. for 3 hours. The content of the tube was passed through the Cell Strainer (pore size 40 μm) and the filtrate was divided into four centrifuge tubes. To each of all four tubes was added 40 ml of medium (α-MEM, LifeTech Co., Ltd.), and the tubes were centrifuged (1500 rpm, 10 minutes). The supernatant was aspirated off, and the resultant precipitates were collected in one tube with Pipetman. After addition of 40 ml of the same medium, the tube was re-centrifuged (1500 rpm, 10 minutes). Washing procedure comprising addition of medium followed by centrifugation was repeated additional three times. The precipitates were suspended in the same medium to give an about 5 ml suspension, and the cell number was counted.
The suspension of costicartilage cell described above was added to 24-well plate at 50,000 cells per well (day 1). […]
After removing the medium, cells in each well were fixed by addition of 1 ml of neutral buffer containing 4% paraformaldehyde and incubation for 30 minutes at room temperature. […] Absorbance at 620 nm was measured, and cartilage matrix amount (proteoglycan production amount) in each well was estimated, and proteoglycan production rate (%) of each test compound for vehicle (100%) was calculated.
The cartilage matrix (proteoglycan) production was determined using other compounds (compounds (52)-(55) and Compound (2) for comparison) in exactly the same manner as Experimental Example 3 above.

COc1ccc(C2CNC(=O)C2)cc1OC1CCCC1 (stereo not drawn) [Rolipram]
bone mineral density of the backbone and the femur [1]: increase of bone mineral density of the backbone and the femur | hyperplasia of cortical bone [1]: hyperplasia of cortical bone

CCOc1cc2cc(CO)c(CO)c(-c3ccn(CCOC)c(=O)c3)c2cc1OCC [Compound (1)]
calcium deposition / calcification enhancement [2]: calcium deposition was clearly observed | Fibula Bone Mineral Density (fibula fracture region; drug content 0.1 mg): 36.77 ± 1.52 mg/cm^2 | Fibula Bone Volume (fibula fracture region; drug content 0.1 mg): 68.1 ± 2.9 µL | Fibula Bone Mineral Content (fibula fracture region; drug content 0.1 mg): 14.27 ± 0.76 mg | Breaking Energy (fibula fracture region; drug content 0.1 mg): 4.37 ± 0.71 mJ | Breaking force (fibula fracture region; drug content 0.1 mg): 19.8 ± 2.14 N | Fibula Bone Mineral Density (fibula fracture region; drug content 0.5 mg): 40.05 ± 1.34 mg/cm^2 | Fibula Bone Volume (fibula fracture region; drug content 0.5 mg): 77.2 ± 2.9 µL | Fibula Bone Mineral Content (fibula fracture region; drug content 0.5 mg): 15.20 ± 0.82 mg | Breaking Energy (fibula fracture region; drug content 0.5 mg): 6.44 ± 1.06 mJ | Breaking force (fibula fracture region; drug content 0.5 mg): 23.0 ± 1.68 N | cartilage matrix (proteoglycan) production promoting effect (in words) [3]: remarkable matrix production promoting effect

COc1cc2c(cc1OC)C(c1ccnc(-n3ccc4c(OCCN5CCOCC5)cccc4c3=O)c1)=N[C@H](CO)C2 [Compound (52)]
cartilage matrix (proteoglycan) production promoting effect (in words) [3]: remarkable matrix production promoting effect

COc1cc2cc(CO)nc(-c3ccnc(-n4nc(-c5nccs5)c5ccccc5c4=O)c3)c2cc1OC [Compound (53)]
cartilage matrix (proteoglycan) production promoting effect (in words) [3]: remarkable matrix production promoting effect

CC(=O)CCCCn1c(=O)c2c(ncn2C)n(C)c1=O [Pentoxifylline]
bone mineral density of the backbone and the femur [1]: increase of bone mineral density of the backbone and the femur | hyperplasia of cortical bone [1]: hyperplasia of cortical bone
